The values below come from US4362667A, “Optical isomers of 4-amino-N-(1-cyclohexyl-3-pyrrolidinyl)-N-methylbenzamide” (A. H. Robins Company, Inc., priority 1981, dated 1982).

This data set relates to rat. As to the kind of experiment: Cataleptic effects. To be noted: fumarate salt, expressed as free base. The class given is in vivo. From the text: The procedure used for determing cataleptic effects of the fumarate salte was based on that of Tedeschi et al., Arch. Int. Pharmacodyn.

Consider `CN(C(=O)c1ccc(N)cc1)C1CCN(C2CCCCC2)C1` (racemic) [± racemate, 4-Amino-N-(1-cyclohexyl-3-pyrrolidinyl)-N-methylbenzamide], for which the “cataleptic effect, Summary” value was “NSE to 100” (IP) and “NSE to 200” (PO).

As to `CN(C(=O)c1ccc(N)cc1)C1CCN(C2CCCCC2)C1` (single isomer, unassigned; (+)) [(+)-isomer, (+)-4-Amino-N-(1-cyclohexyl-3-pyrrolidinyl)-N-methylbenzamide], the “cataleptic effect, Summary” value is listed as “NSE to 100” (IP) and “NSE to 200” (PO). `CN(C(=O)c1ccc(N)cc1)C1CCN(C2CCCCC2)C1` (single isomer, unassigned; (-)) [(-)-isomer, (-)-4-amino-N-(1-cyclohexyl-3-pyrrolidinyl)-N-methylbenzamide]: where the note is “PO”, the “cataleptic effect, Ed50 (estimated)” value is given as ~80 mg/kg.
